Test results as given in US10392391B2 (Vertex Pharmaceuticals Incorporated, priority 2012, dated 2019).
Like-named read-outs stand apart in the source and are kept apart here.

Target: ATR kinase (full-length ATR) (Homo sapiens (Human), UniProt Q13535)
Assay: ATR inhibition assay (radioactive-phosphate incorporation)
Assay type: biochemical
Outline: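 Ki(app) was fitted by non-linear regression to background-corrected initial rates. Full-length ATR (5 nM) phosphorylated 800 μM peptide using 10 μM [γ-33P]ATP at 25° C in Tris/HCl pH 7.5 buffer with MgCl2, DTT and 7% DMSO. After 10-minute compound pre-incubation and 24-hour reaction, phosphocellulose filters were scintillation counted.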

[1] = Ki(app), 5 nM full-length ATR, 10 μM ATP, 25° C.

ATR kinase (full-length ATR), sequence (Q13535 whole entry): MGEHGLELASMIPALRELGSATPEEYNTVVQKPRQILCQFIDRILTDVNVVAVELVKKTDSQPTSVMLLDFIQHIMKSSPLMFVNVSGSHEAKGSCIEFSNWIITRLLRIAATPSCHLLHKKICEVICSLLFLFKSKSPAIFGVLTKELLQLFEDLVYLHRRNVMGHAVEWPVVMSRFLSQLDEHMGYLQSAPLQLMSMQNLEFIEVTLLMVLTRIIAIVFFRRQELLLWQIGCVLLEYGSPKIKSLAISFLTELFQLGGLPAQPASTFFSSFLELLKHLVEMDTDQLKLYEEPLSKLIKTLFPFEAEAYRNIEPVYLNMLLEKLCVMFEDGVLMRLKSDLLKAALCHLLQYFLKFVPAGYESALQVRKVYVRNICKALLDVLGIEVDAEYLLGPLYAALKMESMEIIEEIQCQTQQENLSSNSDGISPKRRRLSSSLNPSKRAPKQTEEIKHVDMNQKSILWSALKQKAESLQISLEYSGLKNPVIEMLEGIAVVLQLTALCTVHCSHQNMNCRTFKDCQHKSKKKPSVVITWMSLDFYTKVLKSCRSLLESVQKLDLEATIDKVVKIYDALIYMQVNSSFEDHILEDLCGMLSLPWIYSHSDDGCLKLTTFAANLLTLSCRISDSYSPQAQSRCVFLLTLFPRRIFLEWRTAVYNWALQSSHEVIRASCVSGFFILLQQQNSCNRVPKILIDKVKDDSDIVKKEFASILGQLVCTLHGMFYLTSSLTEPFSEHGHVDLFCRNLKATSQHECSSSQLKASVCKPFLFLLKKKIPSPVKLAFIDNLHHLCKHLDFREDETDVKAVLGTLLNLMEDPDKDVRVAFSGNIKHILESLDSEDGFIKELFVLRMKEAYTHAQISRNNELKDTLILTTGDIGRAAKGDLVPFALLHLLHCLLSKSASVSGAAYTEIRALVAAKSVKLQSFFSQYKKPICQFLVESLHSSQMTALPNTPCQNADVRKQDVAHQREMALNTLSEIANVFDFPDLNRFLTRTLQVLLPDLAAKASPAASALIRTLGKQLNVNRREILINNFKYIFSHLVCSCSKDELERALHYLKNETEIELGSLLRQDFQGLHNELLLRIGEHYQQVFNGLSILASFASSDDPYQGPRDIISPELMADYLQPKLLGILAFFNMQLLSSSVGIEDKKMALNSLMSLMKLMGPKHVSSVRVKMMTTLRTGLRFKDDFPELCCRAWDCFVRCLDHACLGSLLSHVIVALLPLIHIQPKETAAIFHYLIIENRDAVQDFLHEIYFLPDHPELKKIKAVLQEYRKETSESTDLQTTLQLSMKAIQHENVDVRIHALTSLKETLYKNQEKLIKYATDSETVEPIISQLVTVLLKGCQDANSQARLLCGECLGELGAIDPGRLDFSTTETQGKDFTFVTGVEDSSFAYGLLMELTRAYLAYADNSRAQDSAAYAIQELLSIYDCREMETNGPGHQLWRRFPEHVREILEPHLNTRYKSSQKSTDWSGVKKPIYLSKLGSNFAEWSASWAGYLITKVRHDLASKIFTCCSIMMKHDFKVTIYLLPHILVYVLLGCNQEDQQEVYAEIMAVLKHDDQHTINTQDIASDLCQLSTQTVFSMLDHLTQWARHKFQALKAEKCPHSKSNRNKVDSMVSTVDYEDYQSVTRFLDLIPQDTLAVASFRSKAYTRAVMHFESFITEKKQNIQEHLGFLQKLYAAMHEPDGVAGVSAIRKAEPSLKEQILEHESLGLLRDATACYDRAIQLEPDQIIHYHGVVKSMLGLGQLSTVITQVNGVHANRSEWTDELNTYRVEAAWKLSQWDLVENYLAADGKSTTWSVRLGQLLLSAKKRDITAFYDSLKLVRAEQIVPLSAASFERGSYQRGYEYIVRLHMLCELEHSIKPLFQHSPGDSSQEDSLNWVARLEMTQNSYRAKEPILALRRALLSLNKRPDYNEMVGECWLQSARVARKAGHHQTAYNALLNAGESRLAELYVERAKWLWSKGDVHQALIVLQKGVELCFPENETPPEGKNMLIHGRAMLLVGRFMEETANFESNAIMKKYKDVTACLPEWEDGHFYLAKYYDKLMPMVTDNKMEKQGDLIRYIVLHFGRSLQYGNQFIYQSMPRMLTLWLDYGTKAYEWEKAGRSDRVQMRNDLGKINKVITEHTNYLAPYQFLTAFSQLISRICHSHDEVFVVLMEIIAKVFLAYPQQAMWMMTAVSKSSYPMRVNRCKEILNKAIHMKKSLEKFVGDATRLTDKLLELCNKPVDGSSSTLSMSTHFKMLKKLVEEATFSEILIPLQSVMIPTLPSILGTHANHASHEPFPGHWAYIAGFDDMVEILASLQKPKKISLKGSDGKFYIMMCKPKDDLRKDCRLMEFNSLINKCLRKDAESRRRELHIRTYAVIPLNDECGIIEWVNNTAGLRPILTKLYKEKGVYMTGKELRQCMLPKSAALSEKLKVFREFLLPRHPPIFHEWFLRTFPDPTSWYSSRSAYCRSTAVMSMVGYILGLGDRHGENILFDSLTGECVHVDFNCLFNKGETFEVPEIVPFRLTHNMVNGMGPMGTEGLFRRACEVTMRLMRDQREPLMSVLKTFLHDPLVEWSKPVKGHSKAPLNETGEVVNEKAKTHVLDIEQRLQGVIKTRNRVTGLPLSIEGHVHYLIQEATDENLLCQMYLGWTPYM

Structure (SMILES) | Ki [1] | Ki
C[C@@H]1CN(C(=O)C2CCN(c3c(F)cncc3NC(=O)c3c(N)nn4cc(F)cnc34)CC2)CCN1 [I-G-45, (R)-2-amino-6-fluoro-N-(5-fluoro-4-(4-(3-methylpiperazine-1-carbonyl)piperidin-1-yl)pyridin-3-yl)pyrazolo[1,5-a]pyrimidine-3-carboxamide] | 10 to 1000 nM | 
COc1cc(Cl)ncc1NC(=O)c1c(N)nn2cc(CC#N)cnc12 [I-O-27, 2-amino-N-(6-chloro-4-methoxypyridin-3-yl)-6-(cyanomethyl)pyrazolo[1,5-a]pyrimidine-3-carboxamide] | < 10 nM | 
CN1CCCC(Oc2ccncc2NC(=O)c2c(N)nn3cc(Cl)cnc23)C1 (stereo not drawn) [I-O-51, 2-amino-6-chloro-N-(4-((1-methylpiperidin-3-yl)oxy)pyridin-3-yl)pyrazolo[1,5-a]pyrimidine-3-carboxamide] | 10 to 1000 nM | 
CN1CC[C@H](Oc2ccncc2NC(=O)c2c(N)nn3cc(F)cnc23)C1 [I-O-1, (S)-2-amino-6-fluoro-N-(4-((1-methylpyrrolidin-3-yl)oxy)pyridin-3-yl)pyrazolo[1,5-a]pyrimidine-3-carboxamide] | 10 to 1000 nM | 
Nc1nn2cc(F)cnc2c1C(=O)Nc1cncc(F)c1N1CCN(C2CCOCC2)CC1 [I-N-121, 2-amino-6-fluoro-N-(5-fluoro-4-(4-(tetrahydro-2H-pyran-4-yl)piperazin-1-yl)pyridin-3-yl)pyrazolo[1,5-a]pyrimidine-3-carboxamide] | 10 to 1000 nM | 
Nc1nn2cc(F)cnc2c1C(=O)Nc1cncc(F)c1C1CCN(C2COC2)CC1 [I-C-13, 2-amino-6-fluoro-N-(5-fluoro-4-(1-(oxetan-3-yl)piperidin-4-yl)pyridin-3-yl)pyrazolo[1,5-a]pyrimidine-3-carboxamide] |  | 1000 to 5000 nM
Nc1nn2cc(F)cnc2c1C(=O)Nc1cncc(F)c1N1CCC(S(=O)(=O)N2CCOCC2)CC1 [I-N-155, 2-amino-6-fluoro-N-(5-fluoro-4-(4-(morpholinosulfonyl)piperidin-1-yl)pyridin-3-yl)pyrazolo[1,5-a]pyrimidine-3-carboxamide] | 10 to 1000 nM | 
Nc1nn2cc(F)cnc2c1C(=O)Nc1cncc(C2CC2)c1N1CCN([C@H]2CCOC2)CC1 [I-N-120, (S)-2-amino-N-(5-cyclopropyl-4-(4-(tetrahydrofuran-3-yl)piperazin-1-yl)pyridin-3-yl)-6-fluoropyrazolo[1,5-a]pyrimidine-3-carboxamide] | 10 to 1000 nM | 
Nc1nn2cc(F)cnc2c1C(=O)Nc1cnccc1N1CCN2C(=O)CC[C@@H]2C1 [I-N-258, (R)-2-amino-6-fluoro-N-(4-(6-oxohexahydropyrrolo[1,2-a]pyrazin-2(1H)-yl)pyridin-3-yl)pyrazolo[1,5-a]pyrimidine-3-carboxamide] | 10 to 1000 nM | 
CN1CC(NC(=O)C2CCN(c3c(F)cncc3NC(=O)c3c(N)nn4cc(F)cnc34)CC2)C1 [I-G-23, 2-amino-6-fluoro-N-(5-fluoro-4-(4-((1-methylazetidin-3-yl)carbamoyl)piperidin-1-yl)pyridin-3-yl)pyrazolo[1,5-a]pyrimidine-3-carboxamide] | 10 to 1000 nM | 
Nc1nn2cc(Cl)cnc2c1C(=O)Nc1cnccc1OCCO [I-O-66, 2-amino-6-chloro-N-(4-(2-hydroxyethoxy)pyridin-3-yl)pyrazolo[1,5-a]pyrimidine-3-carboxamide] | 10 to 1000 nM | 
Nc1nn2cc(F)cnc2c1C(=O)Nc1cncc(F)c1N1CCC(C(=O)N2CCN3CCCC3C2)CC1 (stereo not drawn) [I-G-10, 2-amino-6-fluoro-N-(5-fluoro-4-(4-(octahydropyrrolo[1,2-a]pyrazine-2-carbonyl)piperidin-1-yl)pyridin-3-yl)pyrazolo[1,5-a]pyrimidine-3-carboxamide] | 10 to 1000 nM | 
CN1CC2CC1CN2C(=O)C1CCN(c2c(F)cncc2NC(=O)c2c(N)nn3cc(F)cnc23)CC1 (stereo not drawn) [I-G-53, 2-amino-6-fluoro-N-(5-fluoro-4-(4-(5-methyl-2,5-diazabicyclo[2.2.1]heptane-2-carbonyl)piperidin-1-yl)pyridin-3-yl)pyrazolo[1,5-a]pyrimidine-3-carboxamide] | 10 to 1000 nM | 
Cc1ccncc1-c1ccncc1NC(=O)c1c(N)nn2cc(F)cnc12 [I-C-30, 2-amino-6-fluoro-N-(4-methyl-[3,4′-bipyridin]-3′-yl)pyrazolo[1,5-a]pyrimidine-3-carboxamide] | 10 to 1000 nM | 
Nc1nn2cc(F)cnc2c1C(=O)Nc1cnccc1N1CCN([C@@H]2CCOC2)CC1 [I-N-10, (R)-2-amino-6-fluoro-N-(4-(4-(tetrahydrofuran-3-yl)piperazin-1-yl)pyridin-3-yl)pyrazolo[1,5-a]pyrimidine-3-carboxamide] | 10 to 1000 nM | 
Nc1nn2cc(F)cnc2c1C(=O)Nc1cnccc1N1CCN(C2CC2)CC1 [I-N-33, 2-amino-N-(4-(4-cyclopropylpiperazin-1-yl)pyridin-3-yl)-6-fluoropyrazolo[1,5-a]pyrimidine-3-carboxamide] | 10 to 1000 nM | 
CN1CCC(c2c(F)cncc2NC(=O)c2c(N)nn3cc(F)cnc23)CC1 [I-C-14, 2-amino-6-fluoro-N-(5-fluoro-4-(1-methylpiperidin-4-yl)pyridin-3-yl)pyrazolo[1,5-a]pyrimidine-3-carboxamide] |  | 1000 to 5000 nM

Structure (SMILES) | Ki [1] | Ki
Nc1nn2cc(F)cnc2c1C(=O)Nc1cncc(F)c1N1CCC(n2ccnc2)CC1 [I-N-288, N-(4-(4-(1H-imidazol-1-yl)piperidin-1-yl)-5-fluoropyridin-3-yl)-2-amino-6-fluoropyrazolo[1,5-a]pyrimidine-3-carboxamide] | 10 to 1000 nM | 
Nc1nn2cc(Cl)cnc2c1C(=O)Nc1cnccc1O[C@@H]1CCCNC1 [I-O-81, (R)-2-amino-6-chloro-N-(4-(piperidin-3-yloxy)pyridin-3-yl)pyrazolo[1,5-a]pyrimidine-3-carboxamide] | 10 to 1000 nM | 
Nc1nn2cc(F)cnc2c1C(=O)Nc1cnccc1N1CCN(C2CCOC2)CC1 (racemic) [I-N-19, (R,S)-2-amino-6-fluoro-N-(4-(4-(tetrahydrofuran-3-yl)piperazin-1-yl)pyridin-3-yl)pyrazolo[1,5-a]pyrimidine-3-carboxamide] | 10 to 1000 nM | 
Nc1nn2cc(F)cnc2c1C(=O)Nc1cncc(F)c1N1CCN(C(=O)CN2CCCC2)CC1 [I-N-187, 2-amino-6-fluoro-N-(5-fluoro-4-(4-(2-(pyrrolidin-1-yl)acetyl)piperazin-1-yl)pyridin-3-yl)pyrazolo[1,5-a]pyrimidine-3-carboxamide] | 10 to 1000 nM | 
CN1CCN(c2ccncc2NC(=O)c2c(N)nn3cc(F)cnc23)CC12CCOCC2 [I-N-133, 2-amino-6-fluoro-N-(4-(1-methyl-9-oxa-1,4-diazaspiro[5.5]undecan-4-yl)pyridin-3-yl)pyrazolo[1,5-a]pyrimidine-3-carboxamide] | 10 to 1000 nM | 
CN1CCN(c2c(Cl)cncc2NC(=O)c2c(N)nn3cc(Cl)cnc23)CC1 [I-N-41, 2-amino-6-chloro-N-(5-chloro-4-(4-methylpiperazin-1-yl)pyridin-3-yl)pyrazolo[1,5-a]pyrimidine-3-carboxamide] | 10 to 1000 nM | 
Nc1nn2cc(F)cnc2c1C(=O)Nc1cncc(F)c1N1CCN2C(=O)CC[C@@H]2C1 [I-N-182, (R)-2-amino-6-fluoro-N-(5-fluoro-4-(6-oxohexahydropyrrolo[1,2-a]pyrazin-2(1H)-yl)pyridin-3-yl)pyrazolo[1,5-a]pyrimidine-3-carboxamide] | 10 to 1000 nM | 
Nc1nn2cc(Cl)cnc2c1C(=O)Nc1cncc(F)c1N1CCC(C(=O)N2CCN3CCC2CC3)CC1 [I-G-87, N-(4-(4-(1,4-diazabicyclo[3.2.2]nonane-4-carbonyl)piperidin-1-yl)-5-fluoropyridin-3-yl)-2-amino-6-chloropyrazolo[1,5-a]pyrimidine-3-carboxamide] | 10 to 1000 nM | 
Nc1nn2cc(F)cnc2c1C(=O)Nc1cnccc1C1CC1 [I-C-42, 2-amino-N-(4-cyclopropylpyridin-3-yl)-6-fluoropyrazolo[1,5-a]pyrimidine-3-carboxamide] | 10 to 1000 nM | 
Cc1nonc1N1CCN(c2ccncc2NC(=O)c2c(N)nn3cc(F)cnc23)CC1 [I-N-260, 2-amino-6-fluoro-N-(4-(4-(4-methyl-1,2,5-oxadiazol-3-yl)piperazin-1-yl)pyridin-3-yl)pyrazolo[1,5-a]pyrimidine-3-carboxamide] | 10 to 1000 nM | 
N#CC1CN(C(=O)C2CCN(c3c(F)cncc3NC(=O)c3c(N)nn4cc(F)cnc34)CC2)C1 [I-G-76, 2-amino-N-(4-(4-(3-cyanoazetidine-1-carbonyl)piperidin-1-yl)-5-fluoropyridin-3-yl)-6-fluoropyrazolo[1,5-a]pyrimidine-3-carboxamide] | 10 to 1000 nM | 
N#CCc1cnc2c(C(=O)Nc3cnccc3OC3CN4CCC3CC4)c(N)nn2c1 (racemic) [I-O-22, (R,S)-2-amino-6-(cyanomethyl)-N-(4-(quinuclidin-3-yloxy)pyridin-3-yl)pyrazolo[1,5-a]pyrimidine-3-carboxamide] | 10 to 1000 nM | 
CN(C)C1CCCN(c2ccncc2NC(=O)c2c(N)nn3cc(Cl)cnc23)C1 (stereo not drawn) [I-N-40, 2-amino-6-chloro-N-(4-(3-(dimethylamino)piperidin-1-yl)pyridin-3-yl)pyrazolo[1,5-a]pyrimidine-3-carboxamide] | 10 to 1000 nM | 
Cc1nc(O[C@@H]2CCN(C)C2)ccc1-c1ccncc1NC(=O)c1c(N)nn2cc(F)cnc12 [I-C-41, (R)-2-amino-6-fluoro-N-(2-methyl-6-((1-methylpyrrolidin-3-yl)oxy)-[3,4′-bipyridin]-3′-yl)pyrazolo[1,5-a]pyrimidine-3-carboxamide] | 10 to 1000 nM | 
CN1CCN(c2ccncc2NC(=O)c2c(N)nn3cc(Cl)cnc23)CC1(C)C [I-N-53, 2-amino-6-chloro-N-(4-(3,3,4-trimethylpiperazin-1-yl)pyridin-3-yl)pyrazolo[1,5-a]pyrimidine-3-carboxamide] | 10 to 1000 nM | 
Nc1nn2cc(F)cnc2c1C(=O)Nc1cncc(F)c1N1CCC(C(=O)N2CCC(N3CCCC3)CC2)CC1 [I-G-59, 2-amino-6-fluoro-N-(5-fluoro-4-(4-(4-(pyrrolidin-1-yl)piperidine-1-carbonyl)piperidin-1-yl)pyridin-3-yl)pyrazolo[1,5-a]pyrimidine-3-carboxamide] | 10 to 1000 nM | 
